Reference: ChEMBL document CHEMBL1149608, “Pyrrolidinones as orally bioavailable antagonists of the human melanocortin-4 receptor with anti-cachectic activity” (Bioorg Med Chem, 2007)
pEC50, pIC50, pKi: −log10 of the molar value. Activity calls are given as the source filed them. The rule behind the calls is not given here.

What was measured:
[1] = in vivo; settings: C57BL/6J, mouse, po, 10 mg/kg
[2] = molecular target: T1, Melanocortin receptor 4 (Homo sapiens, UniProt P32245); experiment: Antagonist activity at human MC4 receptor in HEK293 cells assessed as inhibition of alpha-MSH stimulated cAMP production
T1 sequence (P32245 whole entry): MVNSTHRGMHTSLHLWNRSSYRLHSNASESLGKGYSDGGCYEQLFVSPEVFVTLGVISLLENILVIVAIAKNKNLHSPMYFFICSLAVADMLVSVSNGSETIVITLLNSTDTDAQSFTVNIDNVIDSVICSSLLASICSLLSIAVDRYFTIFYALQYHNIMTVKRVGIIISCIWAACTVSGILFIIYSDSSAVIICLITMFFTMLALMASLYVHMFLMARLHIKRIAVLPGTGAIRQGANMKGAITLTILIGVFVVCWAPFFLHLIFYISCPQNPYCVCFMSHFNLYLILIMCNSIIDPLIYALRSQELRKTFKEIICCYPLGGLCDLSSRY

[3] = molecular target: T1, Melanocortin receptor 4; experiment: Displacement of [125I]NDP-MSH from MC4R receptor in HEK293 cells; assay type: cell-based
[4] = in vivo; settings: C57BL/6J, mouse, brain, iv, 5 mg/kg
[5] = in vivo; settings: C57BL/6J, mouse, brain, iv, 5 mg/kg; remark: listed apart in the source
[6] = in vivo; settings: C57BL/6J, mouse, iv, 5 mg/kg
[7] = in vivo; settings: C57BL/6J, mouse, brain, iv, 5 mg/kg; remark: listed apart in the source
[8] = in vivo; settings: C57BL/6J, mouse, po, 10 mg/kg; remark: listed apart in the source
[9] = molecular target: Melanocortin receptor 5 (Homo sapiens, UniProt P33032); experiment: Displacement of [125I]NDP-MSH from MC5R receptor in HEK293 cells; assay type: cell-based
Chain of Melanocortin receptor 5 (P33032 whole entry): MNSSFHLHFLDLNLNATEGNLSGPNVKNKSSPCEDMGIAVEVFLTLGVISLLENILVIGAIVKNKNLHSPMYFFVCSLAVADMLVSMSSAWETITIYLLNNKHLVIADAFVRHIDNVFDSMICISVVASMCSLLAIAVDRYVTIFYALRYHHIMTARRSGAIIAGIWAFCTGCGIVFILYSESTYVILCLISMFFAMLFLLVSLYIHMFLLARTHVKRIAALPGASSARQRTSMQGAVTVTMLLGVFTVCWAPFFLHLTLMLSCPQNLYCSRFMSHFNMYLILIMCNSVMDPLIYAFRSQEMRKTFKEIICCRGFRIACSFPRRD

[10] = AUC (0 to 24 hrs) in brain of C57BL/6J mouse at 5 mg/kg, iv; assay type: ADME, organism-based; parameters: time < 24 hr, dose 5 mg/kg, route intravenous
[11] = molecular target: Melanocyte-stimulating hormone receptor (Homo sapiens) (UniProt Q01726); experiment: Displacement of [125I]NDP-MSH from MC1R receptor in HEK293 cells; assay type: cell-based
Chain of Melanocyte-stimulating hormone receptor (Homo sapiens) (Q01726 whole entry, looked up): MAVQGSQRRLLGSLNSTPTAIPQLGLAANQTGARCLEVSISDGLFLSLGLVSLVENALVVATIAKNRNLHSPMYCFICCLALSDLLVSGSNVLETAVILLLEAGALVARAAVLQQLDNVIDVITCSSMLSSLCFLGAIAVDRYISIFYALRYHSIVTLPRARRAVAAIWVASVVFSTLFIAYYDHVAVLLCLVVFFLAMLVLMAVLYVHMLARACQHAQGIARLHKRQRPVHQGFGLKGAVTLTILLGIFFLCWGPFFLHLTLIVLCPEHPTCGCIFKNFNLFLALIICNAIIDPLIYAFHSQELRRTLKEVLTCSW

[12] = in vivo; settings: C57BL/6J, mouse, iv, 5 mg/kg; remark: listed apart in the source
[13] = in vivo; settings: C57BL/6J, mouse, brain, iv, 5 mg/kg; remark: listed apart in the source
[14] = physchem; settings: octanol/water
[15] = in vivo; settings: C57BL/6J, mouse, plasma, iv, 5 mg/kg
[16] = in vivo; settings: C57BL/6J, mouse, plasma, po, 10 mg/kg
[17] = in vivo; settings: C57BL/6J, mouse, plasma, iv, 5 mg/kg; remark: listed apart in the source
[18] = in vivo; settings: C57BL/6J, mouse, po, 10 mg/kg; remark: listed apart in the source
[19] = molecular target: Melanocortin receptor 3 (Homo sapiens, UniProt P41968); experiment: Displacement of [125I]NDP-MSH from MC3R receptor in HEK293 cells; assay type: cell-based
Chain of Melanocortin receptor 3 (P41968 whole entry): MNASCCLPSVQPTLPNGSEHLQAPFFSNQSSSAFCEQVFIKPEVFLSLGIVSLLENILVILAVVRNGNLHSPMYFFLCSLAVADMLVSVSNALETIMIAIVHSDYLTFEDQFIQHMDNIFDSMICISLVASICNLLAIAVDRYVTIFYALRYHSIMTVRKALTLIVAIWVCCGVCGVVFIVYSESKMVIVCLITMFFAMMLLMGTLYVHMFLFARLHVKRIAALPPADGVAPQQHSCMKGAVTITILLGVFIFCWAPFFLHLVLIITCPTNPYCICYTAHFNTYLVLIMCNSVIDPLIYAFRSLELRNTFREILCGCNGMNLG

[20] = molecular target: Melanocortin receptor 4 (Rattus norvegicus, UniProt P70596); experiment: Binding affinity to rat MC4 receptor
Chain of Melanocortin receptor 4 (Rattus norvegicus, UniProt P70596) (P70596 whole entry): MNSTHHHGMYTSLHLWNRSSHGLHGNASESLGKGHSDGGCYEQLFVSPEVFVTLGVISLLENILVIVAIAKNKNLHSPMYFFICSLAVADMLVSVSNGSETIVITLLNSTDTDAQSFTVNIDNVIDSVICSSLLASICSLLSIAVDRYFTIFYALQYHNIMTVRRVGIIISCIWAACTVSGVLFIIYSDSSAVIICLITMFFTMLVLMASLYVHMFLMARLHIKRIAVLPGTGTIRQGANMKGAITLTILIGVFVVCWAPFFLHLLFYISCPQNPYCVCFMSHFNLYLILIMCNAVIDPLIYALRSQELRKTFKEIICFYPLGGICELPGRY

[21] = molecular target: Melanocortin receptor 4 (Mus musculus, UniProt P56450); experiment: Binding affinity to C57BL/6J mouse MC4 receptor
Chain of Melanocortin receptor 4 (Mus musculus, UniProt P56450) (P56450 whole entry): as the sequence (P70596 whole entry) above, with H21Y, S36P, T199S, A239T, P329S, G330S counted along it

[22] = tested on: Mus musculus; experiment: Increase in fat mass in LLC-tumor bearing C57BL/6J mouse at 3 mg/kg, ip; assay type: functional; settings: route intraperitoneal
[23] = molecular target: Growth hormone secretagogue receptor type 1 (Homo sapiens, UniProt Q92847); experiment: Agonist activity at ghrelin receptor; assay type: functional
Chain of Growth hormone secretagogue receptor type 1 (Q92847 whole entry): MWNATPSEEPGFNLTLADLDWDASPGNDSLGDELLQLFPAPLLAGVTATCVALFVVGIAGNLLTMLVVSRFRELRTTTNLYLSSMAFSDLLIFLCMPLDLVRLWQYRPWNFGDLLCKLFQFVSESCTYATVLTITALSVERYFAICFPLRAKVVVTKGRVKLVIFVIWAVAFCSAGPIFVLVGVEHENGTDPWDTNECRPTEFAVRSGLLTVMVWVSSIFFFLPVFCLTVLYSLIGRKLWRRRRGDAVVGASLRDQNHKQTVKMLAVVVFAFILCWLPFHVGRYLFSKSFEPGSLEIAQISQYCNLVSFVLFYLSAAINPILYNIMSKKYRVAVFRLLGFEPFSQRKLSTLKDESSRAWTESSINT

[24] = tested on: Mus musculus; experiment: Increase in body weight in LLC-tumor bearing C57BL/6J mouse at 9 mg/kg, ip; assay type: functional, organism-based; parameters: dose 9 mg/kg
[25] = tested on: Mus musculus; experiment: Increase in food intake in LLC-tumor bearing C57BL/6J mouse at 9 mg/kg, ip relative to control; assay type: functional, organism-based; parameters: dose 9 mg/kg
[26] = tested on: Mus musculus; experiment: Increase in lean body mass in LLC-tumor bearing C57BL/6J mouse at 3 mg/kg, ip; assay type: functional; settings: route intraperitoneal
[27] = tested on: Mus musculus; experiment: Increase in body weight in LLC-tumor bearing C57BL/6J mouse at 3 mg/kg, ip; assay type: functional, organism-based; parameters: dose 3 mg/kg
[28] = tested on: Mus musculus; experiment: Increase in lean body mass in LLC-tumor bearing C57BL/6J mouse at 9 mg/kg, ip; assay type: functional; settings: route intraperitoneal
[29] = tested on: Mus musculus; experiment: Increase in fat mass in LLC-tumor bearing C57BL/6J mouse at 9 mg/kg, ip; assay type: functional; settings: route intraperitoneal
[30] = tested on: Mus musculus; experiment: Increase in food intake in LLC-tumor bearing C57BL/6J mouse at 3 mg/kg, ip relative to control; assay type: functional, organism-based; parameters: dose 3 mg/kg

## CC(C)C[C@H](N)c1cc(C(F)(F)F)ccc1N1CCN(C(=O)[C@@H](Cc2ccc(Cl)cc2Cl)N2CCNCC2=O)CC1
[1]
  Tmax: 0.5 h
[2]
  pIC50: 6.68
[3]
  pKi: 8.35
[4]
  Kp at 1 h: 0.07
[5]
  concentration at 1 h: 41 ng/g
[6]
  Vd: 13 L/kg
[7]
  concentration at 4 h: 46 ng/g
[8]
  Cmax: 214 ng/mL
[9]
  pKi: 6.44
[10]
  AUC(0-t) at 24 h: 1260 ng/g.hr
[11]
  Activity: 23%
[12]
  half-life: 7.7 h
[13]
  Kp at 4 h: 0.24
[14]
  logD: 2.8
[15]
  clearance: 20 mL/min/kg
[16]
  AUC: 1530 ng·h/mL
[17]
  AUC: 3940 ng·h/mL
[18]
  bioavailability: 19.4%
[19]
  pKi: 6.02

## CC(C)C[C@H](N)c1cccc(F)c1N1CCN(C(=O)[C@@H](Cc2ccc(Cl)cc2Cl)N2CCCC2=O)CC1
[2]
  Activity: Dose-dependent effect

## CC(C)C[C@H](N)c1cccc(F)c1N1CCN(C(=O)[C@@H](Cc2ccc(Cl)cc2Cl)NC(=O)CN)CC1
[2]
  Activity: Dose-dependent effect
[3]
  pKi: 8.48

## CC(C)C[C@H](N)c1cccc(C(F)(F)F)c1N1CCN(C(=O)[C@@H](Cc2ccc(Cl)cc2Cl)NC(=O)CN)CC1
[2]
  Activity: Dose-dependent effect
[3]
  pKi: 8.48

## CC(=O)N[C@H](Cc1ccc(Cl)cc1Cl)C(=O)N1CCN(c2c([C@H](N)CC(C)C)cccc2C(F)(F)F)CC1
[2]
  Activity: Dose-dependent effect
[3]
  pKi: 7.33

## CC(C)C[C@H](N)c1ccccc1N1CCN(C(=O)[C@@H](Cc2ccc(Cl)cc2)N2CCCC2=O)CC1
[2]
  Activity: Dose-dependent effect
[3]
  pKi: 7.42

## CC(C)C[C@@H](N)c1cc(C(F)(F)F)ccc1N1CCN(C(=O)[C@@H](Cc2ccc(Cl)cc2Cl)NC(=O)CCN)CC1
[2]
  Activity: Dose-dependent effect
[3]
  pKi: 8.00

## CC(C)C[C@@H](N)c1cccc(C(F)(F)F)c1N1CCN(C(=O)[C@@H](Cc2ccc(Cl)cc2Cl)NC(=O)CCN)CC1
[2]
  Activity: Dose-dependent effect
[3]
  pKi: 7.54

## CC(C)C[C@H](N)c1cccc(C(F)(F)F)c1N1CCN(C(=O)[C@@H](Cc2ccc(Cl)cc2Cl)NC(=O)CCN)CC1
[2]
  Activity: Dose-dependent effect
[3]
  pKi: 8.60

## CC(C)C[C@@H](N)c1cccc(F)c1N1CCN(C(=O)[C@@H](Cc2ccc(Cl)cc2Cl)NC(=O)CN)CC1
[2]
  Activity: Dose-dependent effect
[3]
  pKi: 8.15

## CC(C)C[C@H](N)c1cc(C(F)(F)F)ccc1N1CCN(C(=O)[C@@H](Cc2ccc(Cl)cc2Cl)NC(=O)CCN)CC1
[2]
  Activity: Dose-dependent effect
[3]
  pKi: 9.00

## CC(C)C[C@@H](N)c1cccc(F)c1N1CCN(C(=O)[C@@H](Cc2ccc(Cl)cc2Cl)NC(=O)CCN)CC1
[2]
  Activity: Dose-dependent effect
[3]
  pKi: 8.64

## CC(C)C[C@H](N)c1cc(C(F)(F)F)ccc1N1CCN(C(=O)[C@H](N)Cc2ccc(Cl)cc2Cl)CC1
[2]
  Activity: Dose-dependent effect
[3]
  pKi: 7.41

## CC(C)C[C@H](N)c1cc(C(F)(F)F)ccc1N1CCN(C(=O)[C@H](Cc2ccc(Cl)cc2)N2CCCC2=O)CC1
[2]
  Activity: Dose-dependent effect
[3]
  pKi: 8.06

## CC(C)C[C@@H](N)c1cccc(C(F)(F)F)c1N1CCN(C(=O)[C@@H](Cc2ccc(Cl)cc2Cl)NC(=O)CN)CC1
[2]
  Activity: Dose-dependent effect
[3]
  pKi: 7.31

## CC(=O)N[C@H](Cc1ccc(Cl)cc1Cl)C(=O)N1CCN(c2ccc(C(F)(F)F)cc2[C@@H](N)CC(C)C)CC1
[2]
  Activity: Dose-dependent effect
[3]
  pKi: 8.74

## CC(C)C[C@H](N)c1cc(C(F)(F)F)ccc1N1CCN(C(=O)[C@@H](Cc2ccc(Cl)cc2Cl)N2CCCC2=O)CC1
[11]
  Activity: 21%

## CC(C)C[C@H](N)c1cc(C(F)(F)F)ccc1N1CCN(C(=O)[C@@H](Cc2ccc(Cl)cc2)N2CCCC2=O)CC1
[20]
  pKi: 8.04
[21]
  pKi: 8.26
[1]
  Tmax: 0.5 h
[22]
  Activity: 10%
[2]
  pIC50: 6.29
[23]
  pEC50: 5.39
  Intrinsic activity: 47%
[3]
  pKi: 7.96
[4]
  Kp at 1 h: 1.27
[24]
  Activity: Active
[25]
  Activity: Active
[5]
  concentration at 1 h: 484 ng/g
[6]
  Vd: 5.8 L/kg
[26]
  Activity: 20%
[7]
  concentration at 4 h: 154 ng/g
[8]
  Cmax: 270 ng/mL
[27]
  Activity: Active
[9]
  pKi: 6.00
[11]
  Activity: 31%
[12]
  half-life: 2.2 h
[13]
  Kp at 4 h: 0.81
[14]
  logD: 3.1
[15]
  clearance: 31 mL/min/kg
[28]
  Activity: 20%
[29]
  Activity: 10%
[16]
  AUC: 2270 ng·h/mL
[17]
  AUC: 2680 ng·h/mL
[18]
  bioavailability: 42.4%
[30]
  Activity: Active
[19]
  pKi: 5.74

## CC(C)C[C@H](N)c1cccc(F)c1N1CCN(C(=O)[C@@H](Cc2ccc(Cl)cc2Cl)NC(=O)CCN)CC1
[2]
  Activity: Dose-dependent effect
[3]
  pKi: 9.10
[9]
  pKi: 6.62
[19]
  pKi: 6.35

## CC(=O)N[C@H](Cc1ccc(Cl)cc1Cl)C(=O)N1CCN(c2c(F)cccc2[C@H](N)CC(C)C)CC1
[2]
  Activity: Dose-dependent effect
[3]
  pKi: 8.22

## CC(=O)N[C@H](Cc1ccc(Cl)cc1Cl)C(=O)N1CCN(c2c(F)cccc2[C@@H](N)CC(C)C)CC1
[2]
  Activity: Dose-dependent effect
[3]
  pKi: 8.12

## CC(=O)N[C@H](Cc1ccc(Cl)cc1Cl)C(=O)N1CCN(c2ccc(F)cc2[C@H](N)CC(C)C)CC1
[2]
  Activity: Dose-dependent effect
[3]
  pKi: 7.59

## CC(C)C[C@H](N)c1cc(C(F)(F)F)ccc1N1CCN(C(=O)[C@@H](Cc2ccc(Cl)cc2Cl)NC(=O)CN)CC1
[2]
  Activity: Dose-dependent effect
[3]
  pKi: 8.74

## CC(C)C[C@H](N)c1cc(C(F)(F)F)ccc1N1CCN(C(=O)[C@@H](Cc2ccc(Cl)cc2Cl)NC(=O)C2CCNCC2)CC1
[2]
  Activity: Dose-dependent effect
[3]
  pKi: 9.10
